{"source": "patent US5817669A", "about": "“Compounds, processes for the preparation thereof and anti-tumor agents” (Dainippon Pharmaceutical Co., Ltd., priority 1994, dated 1998)", "key": {"[1]": {"test_system": "murine P388 lymphocytic leukemia cells", "assay": "In vitro anti-tumor activity against murine P388 lymphocytic leukemia cells (MTT, 72 h)", "format": "cell-based", "conditions": "Mus musculus; murine P388 cells, 72 h, MTT; read-out: IC50 (50% proliferation inhibitory concentration)", "how_it_was_run": "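MTT assay, 72 h exposure; formazan dissolved in DMSO after centrifugation and supernatant removal. Absorbance read at 570 nm with 690 nm reference. IC50 (μg/ml) by least squares.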"}, "[2]": {"test_system": "KB human nasopharynx cancer", "assay": "In vitro anti-tumor activity against KB human nasopharynx cancer (MTT)", "format": "cell-based", "conditions": "KB, 72 h, MTT, read-out: IC50", "how_it_was_run": "(§1)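 Compound treatment lasts 72 hours on cells seeded 20 hours earlier (500–2,000/well, 37° C, 5% CO2); a 4-hour MTT step follows, with formazan taken up in DMSO.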"}, "[3]": {"test_system": "HMV2 human melanoma", "assay": "In vitro anti-tumor activity against HMV-2 human melanoma (MTT)", "format": "cell-based", "conditions": "HMV-2, 72 h, MTT, read-out: IC50", "how_it_was_run": "as §1"}, "[4]": {"test_system": "AZ521 human stomach cancer", "assay": "In vitro anti-tumor activity against AZ-521 human stomach cancer (MTT)", "format": "cell-based", "conditions": "AZ-521, 72 h, MTT, read-out: IC50", "how_it_was_run": "as §1"}, "[5]": {"test_system": "MKN45 human stomach cancer", "assay": "In vitro anti-tumor activity against MKN45 human stomach cancer (MTT)", "format": "cell-based", "conditions": "MKN-45, MKN45, 72 h, MTT, read-out: IC50", "how_it_was_run": "as §1"}, "[6]": {"test_system": "WiDr human colorectal cancer", "assay": "In vitro anti-tumor activity against WiDr human colorectal cancer (MTT)", "format": "cell-based", "conditions": "72 h, MTT, read-out: IC50", "how_it_was_run": "as §1"}, "[7]": {"test_system": "C33A human cervix cancer", "assay": "In vitro anti-tumor activity against C-33A human cervix cancer (MTT)", "format": "cell-based", "conditions": "C-33A, 72 h, MTT, read-out: IC50", "how_it_was_run": "as §1"}, "[8]": {"test_system": "A427 human lung cancer", "assay": "In vitro anti-tumor activity against A-427 human lung cancer (MTT)", "format": "cell-based", "conditions": "A-427, 72 h, MTT, read-out: IC50", "how_it_was_run": "as §1"}, "[9]": {"test_system": "murine P388 lymphocytic leukemia cells", "assay": "Increases in life span of mice implanted with murine P388 lymphocytic leukemia cells", "format": "in vivo, SLC: BDF1 mice", "conditions": "Mus musculus, P388, ip, 720 h, ip"}, "[10]": {"test_system": "colon 26 murine tumor cells", "assay": "Tumor growth inhibition effect on colon 26 murine tumor cells implanted mice", "format": "in vivo, SLC: CDF1 mice", "conditions": "Mus musculus, Colon 26, 504 h; ip, 1.56 mg/kg once a day, days 1-9; day 21 or 22; read-out: Tumor growth inhibition rate IR (%)", "how_it_was_run": "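CDF1 female mice (7–9 weeks, 7 per group) implanted intracutaneously in the abdomen with 2% brei of colon 26 cells. Compound given ip once daily from day 1 to day 9. Tumor weight estimated from diameters on day 21 or 22; IR % = [1 − (treated MTW/control MTW)] × 100.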"}, "[11]": {"assay": "Acute toxicity", "conditions": "mouse, in vivo; Intraperitoneal administration (ip), mice, 14th day", "procedure": "Solutions of test compounds in predetermined concentrations were administered (0.1 ml/10 g body weight) to female BALB/c CrSlc mice (5 to 10 animals per one group, 10 weeks old) respectively, and, thus, LD50 values were calculated from the mortalities of the mice on the 14th day after the administration."}, "[12]": {"conditions": "NCI criterion, read-out: Evaluation"}, "[13]": {"conditions": "days 1 and 5, in solution, read-out: ILS (%) (in solution)"}, "[14]": {"conditions": "days 1 and 5, in suspension, read-out: ILS (%) (in suspension)"}}, "note": "Like-named read-outs stand apart in the source and are kept apart here."}
{"smiles": "CN[C@@H]1CN(c2ccc3c(=O)c(C(=O)O)cn(-c4nccs4)c3n2)C[C@H]1OC.Cl", "note": "(relative stereo) [Compound 1-1, 1,4-dihydro-7-(trans-3-methoxy-4-methylamino-1-pyrrolidinyl)-4-oxo-1-(2-thiazolyl)-1,8-naphthyridine-3-carboxylic acid hydrochloride]", "values": [{"measurement": "IC50", "setting": "[1]", "value": 0.0107, "unit": "µg/mL"}, {"measurement": "IC50", "setting": "[2]", "value": 0.11, "unit": "µg/mL"}, {"measurement": "IC50", "setting": "[3]", "value": 0.131, "unit": "µg/mL"}, {"measurement": "IC50", "setting": "[4]", "value": 0.0561, "unit": "µg/mL"}, {"measurement": "IC50", "setting": "[5]", "value": 0.15, "unit": "µg/mL"}, {"measurement": "IC50", "setting": "[6]", "value": 0.379, "unit": "µg/mL"}, {"measurement": "IC50", "setting": "[7]", "value": 0.137, "unit": "µg/mL"}, {"measurement": "IC50", "setting": "[8]", "value": 0.0871, "unit": "µg/mL"}, {"measurement": "ILS at 0.78 mg/kg", "setting": "[9]; [12]", "value": "20 to 74", "unit": "%"}, {"measurement": "ILS at 1.56 mg/kg", "setting": "[9]; [12]", "value": "20 to 74", "unit": "%"}, {"measurement": "ILS at 3.13 mg/kg", "setting": "[9]; [12]", "value": "> 75", "unit": "%"}, {"measurement": "ILS at 6.25 mg/kg", "setting": "[9]; [12]", "value": "> 75", "unit": "%"}, {"measurement": "ILS at 12.5 mg/kg", "setting": "[9]; [12]", "value": "> 75", "unit": "%"}, {"measurement": "ILS at 25 mg/kg", "setting": "[9]; [12]", "value": "> 75", "unit": "%"}, {"measurement": "ILS at 50 mg/kg", "setting": "[9]; [12]", "value": "> 75", "unit": "%"}, {"measurement": "ILS at 0.78 mg/kg", "setting": "[9]; [13]", "value": 50, "unit": "%"}, {"measurement": "ILS at 1.56 mg/kg", "setting": "[9]; [13]", "value": 63, "unit": "%"}, {"measurement": "ILS at 3.13 mg/kg", "setting": "[9]; [13]", "value": 100, "unit": "%"}, {"measurement": "ILS at 3.13 mg/kg", "setting": "[9]; [14]", "value": 88, "unit": "%"}, {"measurement": "ILS at 6.25 mg/kg", "setting": "[9]; [13]", "value": 125, "unit": "%"}, {"measurement": "ILS at 12.5 mg/kg", "setting": "[9]; [13]", "value": 150, "unit": "%"}, {"measurement": "ILS at 12.5 mg/kg", "setting": "[9]; [14]", "value": 175, "unit": "%"}, {"measurement": "ILS at 25 mg/kg", "setting": "[9]; [13]", "value": 200, "unit": "%"}, {"measurement": "ILS at 50 mg/kg", "setting": "[9]; [13]", "value": "> 275", "unit": "%"}, {"measurement": "inhibition in vivo at 1.56 mg/kg", "setting": "[10]", "value": 86, "unit": "%"}, {"measurement": "LD50 at 336 h", "setting": "[11]", "value": 93.2, "unit": "mg/kg"}]}
